Experimental data taken from publication PMC11876671, “Investigating blood–brain barrier penetration and neurotoxicity of natural products for central nervous system drug development” (Scientific Reports, 2025).
Counter-ions that a name gives are not always drawn. *1 amine or outer side, *2 acyl side, *3 side chain or, on linkers, in order; H or OH if unused. Where a SMILES comes first, the peptide text is derived from it. Bridges are numbered along the chain shown (N, C = ends). [ ]: non-standard residue; d: D form. The star is where a group is joined. X1 = NC1=N[C@@H]([C@H](N[*:1])C(=O)[*:2])C[C@H](O)N1; ΔAla(Z-3-ureido) = NC(=O)N/C=C(\N)C(=O)O; β3hOrn = NCCC[C@H](N)CC(=O)*; Dap = NC[C@H](N)C(=O)O

Assay: in vitro
Conditions: PAMPA, PAMPA-BBB Pe

Compound | Papp [×10⁻⁶ cm/s]
COC(=O)[C@@H]1[C@H]2C[C@H]3c4[nH]c5ccccc5c4CCN3C[C@@H]2CC[C@@H]1O [YOHIMBINE] | 42

Same assay, conditions: PAMPA, PAMPA-BBB Pe(10^-6 cm/sec)

Compound | Papp [×10⁻⁶ cm/s]
CC(C)C/C=C(\C=O)c1ccccc1 [(Z)-5-METHYL-2-PHENYL-HEX-2-ENAL] | < 1
Nc1nc(=O)[nH]c2c1ncn2[C@@H]1O[C@H](CO)[C@@H](O)[C@H]1O [ISOGUANOSINE] | < 1
Cn1cnc2c1c(=O)[nH]c(=O)n2C [THEOBROMINE] | < 1
Cc1cc2nc3c(=O)[nH]c(=O)nc-3n(C[C@H](O)[C@H](O)[C@H](O)CO)c2cc1C [RIBOFLAVIN] | < 1
CC[C@H](C)C(=O)O[C@H]1C[C@H](O)C=C2C=C[C@H](C)[C@H](CC[C@@H](O)C[C@@H](O)CC(=O)O)[C@H]21 [PRAVASTATIN SODIUM] | < 1
CC1=C(C)C(=O)C(CC[C@](C)(O)CCC[C@H](C)CCC[C@H](C)CCCC(C)C)=C(C)C1=O [.ALPHA.-TOCOPHERYLQUINONE] | 7.2

Same assay, conditions: PAMPA, PAMPA-BBB Pe(10^-6 cm/sec), Table S3: compounds exhibiting low PAMPA-BBB permeability

Compound | Papp [×10⁻⁶ cm/s]
Oc1cc(O)c2cc(O)c(-c3cc(O)c(O)c(O)c3)[o+]c2c1 [D[…]] | 4.7
O=c1cc(-c2ccc(O)cc2)oc2cc(O[C@H]3OC(CO)C(O)C(O)C3O)cc(O)c12 (stereo partly drawn) [COSMOSIOSIDE] | 1.6
NCCC[C@H](N)CC(=O)N[C@H]1CNC(=O)[C@H]([C@H]2C[C@H](O)NC(N)=N2)NC(=O)/C(=C/NC(N)=O)NC(=O)[C@H](CO)NC(=O)[C@H](CO)NC1=O [VIOMYCIN SULFATE] (β3hOrn-[Dap]SS[ΔAla(Z-3-ureido)][X1]; lactam 1-C) | < 1
O=C1C=CC(=O)c2c(O)cccc21 [JUGLONE] | 4.1
COc1cc(C(O)CN)ccc1O (stereo not drawn) [NORMETADRENALINE HYDROCHLORIDE] | < 1
CC1=C(O)C(=O)OC1C (stereo not drawn) [SOTOLONE] | < 1
O=c1ccn([C@@H]2O[C@H](COP(=O)(O)OP(=O)(O)O)[C@@H](O)[C@H]2O)c(=O)[nH]1 [Uridine diphosphate disodium] | < 1
COc1ccc2[nH]cc(CC(=O)O)c2c1 [5-METHOXYIN[…]] | < 1
C[C@@]12C=Cc3occc3[C@H]1CC[C@@]13C[C@@H](CC[C@H]12)[C@@](O)(CO)C3 [KAHWEOL] | < 1
COC(=O)C1=CO[C@@H](O[C@@H]2O[C@H](CO)[C@@H](O)[C@H](O)[C@H]2O)[C@H]2[C@@H]1C(=O)C[C@@H]2C [VERBENALIN] | < 1
O=C(O)c1cc(O)c2c(c1)[C@@H]([C@H]1c3cc(C(=O)O)cc(O)c3C(=O)c3c(O[C@@H]4O[C@H](CO)[C@@H](O)[C@H](O)[C@H]4O)cccc31)c1cccc(O[C@@H]3O[C@H](CO)[C@@H](O)[C@H](O)[C@H]3O)c1C2=O [SENNOSIDE B] | 3
O=c1c(-c2ccc(O)cc2)coc2cc(O[C@@H]3O[C@H](CO)[C@@H](O)[C@H](O)[C@H]3O)ccc12 [DAIDZIN] | < 1
C=C1CC[C@H](O)C/C1=C/C=C1\CCC[C@]2(C)[C@@H]([C@H](C)CCCC(C)C)CC[C@@H]12 [CHOLECALCIFEROL] | < 1
O=C(/C=C/c1ccc(O)c(O)c1)c1ccc(O[C@@H]2O[C@H](CO)[C@@H](O)[C@H](O)[C@H]2O)c(O)c1O [MAREIN¦] | 1.6
O=C1O/C(=C\c2ccc(O)cc2)C(O)=C1c1ccc(O)cc1 [[…] B1] | < 1
COC(=O)C1=CO[C@@H](O)[C@@H]2C(CO)=CC[C@H]12 [GENIPIN] | < 1
Cc1cc(O)c2c(=O)c3c(O)cc(O)c4c5c(O)cc(O)c6c(=O)c7c(O)cc(C)c8c1c2c(c34)c(c78)c65 [HYPERICIN] | 6.4
Nc1ncnc2c1ncn2[C@@H]1O[C@H](CO)C[C@H]1O [CORDYCEPIN] | < 1
CC(=O)O[C@@]12C[C@@H](C)[C@@]3(O)[C@@H](C=C(CO)C[C@]4(O)C(=O)C(C)=C[C@@H]34)[C@@H]1C2(C)C [PROSTRATIN] | < 1
CNCCc1c[nH]c2ccc(O)cc12 [N-METHYLSEROTONIN] | 7.1
NCCC(=O)c1ccccc1N [KYNURAMINE] | 2.4

Compound | Papp [×10⁻⁶ cm/s]
Cc1cc(OC(=O)c2c(C)cc(O)cc2O)cc(O)c1C(=O)O [LECANORIC ACID] | < 1
O=C(O)[C@H]1O[C@@H](Oc2c(-c3ccc(O)c(O)c3)oc3cc(O)cc(O)c3c2=O)[C@H](O)[C@@H](O)[C@@H]1O [QUERCITURONE] | 4.2
Cc1cccc(C(=O)O)c1O [HYDROXYTOLUIC ACID] | < 1
OC[C@H]1O[C@@H](Oc2ccc(O)cc2)[C@H](O)[C@@H](O)[C@@H]1O [ARBUTIN] | < 1
O=C(O)/C=C/C=C/c1ccc2c(c1)OCO2 [PIPERIC ACID] | < 1
CC1=C[C@H](O)CC(C)(C)[C@H]1/C=C/C(C)=C/C=C/C(C)=C/C=C/C=C(C)/C=C/C=C(C)/C=C/C1=C(C)C[C@@H](O)CC1(C)C [XANTHOPHYLL] | 5
Cn1c(=O)[nH]c2ncn(C)c2c1=O [PARAXANTHINE] | < 1
NCCc1c[nH]c2ccccc12 [TRYPTAMINE HYDROCHLORIDE] | < 1
O=C(O)Cc1c[nH]c2ccc(O)cc12 [HYDROXYIN[…]] | < 1
COc1cc(/C=C/C(=O)O)ccc1O [FERULIC ACID] | 1.2
O=C(/C=C/c1ccc(O)c(O)c1)O[C@H](Cc1ccc(O)c(O)c1)C(=O)O [ROSMARINIC ACID] | 3.4
N[C@@H](Cn1ccc(=O)[nH]c1=O)C(=O)O [WILLARDIINE] | < 1
CO[C@@H]1[C@H](O)C[C@@H](O[C@@H]2C[C@H](Oc3cc4cc5c(c(O)c4c(O)c3C)C(=O)[C@@H](O[C@H]3C[C@@H](O[C@H]4C[C@@H](O[C@H]6C[C@](C)(O)[C@@H](OC(C)=O)[C@H](C)O6)[C@H](O)[C@@H](C)O4)[C@H](O)[C@@H](C)O3)[C@H]([C@H](OC)C(=O)[C@@H](O)[C@@H](C)O)C5)O[C@H](C)[C@@H]2OC(C)=O)O[C@@H]1C [CHROMOMYCIN A3] | < 1
Cc1cc(O)cc(O)c1C(=O)O [[…]] | < 1
O=c1[nH]c(=O)c2ncn([C@@H]3O[C@H](CO)[C@@H](O)[C@H]3O)c2[nH]1 [XANTHOSINE] | < 1
CC1=C(CC/C(C)=C/CCC2=CC[C@H](C3=CC(=O)O[C@H]3O)O[C@H]2O)C(C)(C)CCC1 [MANOALIDE] | < 1
O=C1c2c(O)cc(O)cc2O[C@H](c2cc(O)c(O)c(O)c2)[C@H]1O [DIHYDROMYRICETIN] | < 1
CC1=C(/C=C/C(C)=C/C=C/C(C)=C/C=C/C=C(C)/C=C/C=C(C)/C=C/C2=C(C)CCCC2(C)C)C(C)(C)CCC1 [BETA CAROTENE] | 9.2
CC/C=C\C/C=C\C/C=C\C/C=C\C/C=C\CCCC(=O)OCC [ICOSAPENT ETHYL] | < 1
C[C@@H]1O[C@@H](O[C@@H]2C=C3CC[C@@H]4[C@H](CC[C@]5(C)[C@@H](c6ccc(=O)oc6)CC[C@]45O)[C@@]3(C)CC2)[C@H](O)[C@H](O)[C@H]1O [PROSCILLARIDIN] | 1.5

Same assay, conditions: PAMPA, PAMPA-BBB Pe, Table S2: compounds exhibiting moderate to high PAMPA-BBB permeability

Compound | Papp [×10⁻⁶ cm/s]
COC1=CC(=O)O[C@@H](CCc2ccccc2)C1 [DIHYDROKAWAIN] | 82
COc1cc2c(cc1OC)OC(C)(C)C=C2 [PRECOCENE II] | 159
C/C(=C\COc1c2ccoc2cc2oc(=O)ccc12)CCC(O)C(C)(C)O (stereo not drawn) [BERGAMOTTIN DIHYDROXYBERGAMOTTIN] | 55
COC1=C[C@]23CCN(C)[C@H](Cc4ccc(OC)c(O)c42)C3=CC1=O [SALUTARIDINE] | 11
CCN1C[C@@]2(COC)CCC(OC)[C@@]34[C@@H]1C([C@H](OC)[C@H]23)[C@@]1(OC(C)=O)C[C@H](OC)[C@@]2(O)C[C@H]4C1[C@H]2OC(=O)c1ccc(OC)cc1 (stereo partly drawn) [BULLE[…]] | 17
CC1(C)O[C@@H]1COc1c2occc2cc2ccc(=O)oc12 [HERACLENIN] | 210
Cn1cccc1-c1cccnc1 [NICOTYRINE] | 102
CC(=O)[C@H]1CC[C@H]2[C@@H]3C[C@H](C)C4=CC(=O)CC[C@]4(C)[C@H]3[C@@H](O)C[C@]12C [MEDRYSONE] | 72
COc1cc(-c2cc(=O)c3c(O)cc(O)cc3o2)ccc1O [CHRYSERIOL] | 179
COc1ccc(C(=O)O[C@H]2CC[C@@]3(C)[C@@H]4CC[C@H]5[C@]6(O)C[C@H](O)[C@@]7(O)[C@@H](CN8C[C@@H](C)CC[C@H]8[C@@]7(C)O)[C@]6(O)C[C@@]53O[C@]24O)cc1OC [VERATRIDINE] | 17
COC(=O)c1ccc(OC)cc1 [METHYL ANISATE] | 103
COc1cc(-c2oc3cc(O)cc(O)c3c(=O)c2O)ccc1O [ISORHAMNETIN] | 528
OCc1c[nH]c2ccccc12 [INDOLE-3-CARBINOL] | 94
O=c1c(-c2ccc(O)cc2)coc2cc(O[C@@H]3O[C@H](CO)[C@@H](O)[C@H](O)[C@H]3O)cc(O)c12 [GENISTIN] | 29
CC1=CCCC(C)(C)C12CCC(C)O2 (stereo not drawn) [T[…]] | 141
COc1cc(CCC(C)=O)ccc1O [ZINGERONE] | 23
CC(C)[C@H]1C(=O)N[C@H](CO)Cc2c[nH]c3cccc(c23)N1C [[…]] | 47
Cc1ccc(C(C)C)cc1O [CARVACROL] | 111
CCOc1ccc(O)cc1 [P-HYDROXYPHENETOLE] | 35
C/C=C/c1ccc(OC)cc1 [ANETHOLE] | 120
CN1CCCCC1c1ccc(-c2cccnc2)nc1 (stereo not drawn) [ANABASAMINE] | 31
COc1ccc(-c2cc(=O)c3c(OC)c(OC)c(OC)cc3o2)cc1OC [SINENSETIN] | 36
C=C[C@]12CN(C)[C@@H]3[C@H]4CO[C@H](C[C@H]41)[C@]1(C(=O)Nc4ccccc41)[C@@H]32 [GELSEMINE] | 13
CCCC[C@@H](C)/C=C(C)/C=C(\C)C(=O)NC1=C[C@@](O)(/C=C/C=C/C=C/C(=O)NC2=C(O)CCC2=O)[C@@H]2O[C@@H]2C1=O [MANUMYCIN A] | 64
CC(C)c1cccc(O)c1 [M-ISOPROPYLPHENOL] | 149
Oc1ccc(C2=Cc3ccc(O)cc3OC2)cc1 [IDRONOXIL] | 145
COc1ccc(/C=C/c2cc(OC)cc(=O)o2)cc1 [YANGONIN] | 156
COc1ccc(/C=C/c2cc(O)cc(O)c2)cc1O [RHAPONTIN GENIN] | 70
CC1=C(O)C(=O)CO1 [NORFURONOL] | 47
COC(=O)c1c(C)cc(O)cc1O [Methyl 2,4-dihydroxy-6-methylbenzoate] | 63
